Activity calls are given as the source filed them. The rule behind the calls is not given here.
These molecules were tested on HEK-293T NF-kB luciferase reporter counterscreen, luminescence (assay: inhibitors of HEK-293T NF-kB luciferase – HEK-293T cells, luminescence, counter-screen for T-cell antigen receptor NF-kB inhibitors, dose response (AID 489041)).

| Structure (SMILES) | IC50 |
| --- | --- |
| Cc1ccc(C(=O)Nc2ncc(Cc3ccc(SC(F)F)cc3)s2)cc1 | > 80 µM (inactive) |
| COc1ccc(N/N=C/c2c(C(=O)O)ccc3ccccc23)cc1 | 15.8 µM |
| CC(=O)O[C@H]1C(=O)[C@@]2(C)C([C@H](OC(=O)c3ccccc3)[C@]3(O)C[C@H](OC(=O)[C@H](O)[C@@H](NC(=O)c4ccccc4)c4ccccc4)C(C)=C1C3(C)C)[C@]1(OC(C)=O)CO[C@@H]1C[C@H]2O (stereo partly drawn) | > 80 µM (inactive) |
| CCN1C/C(=C/c2ccc(OC)c(O)c2)C(=O)/C(=C/c2ccc(OC)c(O)c2)C1 | 39 µM (inactive) |
| O=C(Nc1ccc(Cc2ccncc2)cc1)c1ccc(S(=O)(=O)N2CCCC2)cc1 | 2.75 µM |
| Cn1nc(C(C)(C)C)cc1C(=O)NCc1cc(F)cc2c1OCOC2 | 2.47 µM |
| CCS(=O)(=O)c1ncc(Cl)c(C(=O)Nc2ccc(S(=O)(=O)N(C)c3ccccc3)cc2)n1 | 20.2 µM (inactive) |
| CC[C@]1(O)CC2CN(CCc3c([nH]c4ccccc34)[C@@](C(=O)OC)(c3cc4c(cc3OC)N(C=O)[C@H]3[C@@](O)(C(=O)OC)[C@H](OC(C)=O)[C@]5(CC)C=CCN6CC[C@]43[C@@H]65)C2)C1 (stereo partly drawn) | 3.12 µM |
| CC(=O)c1sc2c(c1OC(=O)c1ccc(Cl)cc1Cl)c(=O)n(-c1ccccc1)c(=S)n2-c1ccccc1 | 28.7 µM (inactive) |
| CCO[C@@H]1OC(C(=O)NCc2nc3ccccc3[nH]2)=C[C@H](C(C)(C)C)[C@H]1CCCO | 1.37 µM |
| COc1cc(C(=O)N/N=C/c2cc([N+](=O)[O-])cs2)cc(OC)c1OC | 1.91 µM |
| Cc1ccc(S(=O)(=O)Cc2ccc(C(=O)N3CCN(c4cccc(C)c4C)CC3)o2)cc1 | 3.22 µM |
| Cc1sc2ncnc(NC3CCN(Cc4ccccc4)CC3)c2c1C | 2.41 µM |
| CCCCCCCCCCCCCCCC[n+]1ccc(/C=N/O)cc1 | 20.7 µM (inactive) |
| CCc1cc2c(=O)nc3n(c2s1)Cc1ccccc1/C3=C(/O)c1cccc([N+](=O)[O-])c1 | > 80 µM (inactive) |
| Cc1noc(C)c1COc1cccc(C(=O)OCC(=O)N2CC(=O)Nc3ccccc32)c1 | 24.9 µM (inactive) |
| O=C(Nc1ccc(F)cc1)c1ccc(CN2CCc3ccccc3C2)cc1 | 4.71 µM |
| COc1cc(OC)c(/C=C2\C(=O)Nc3ccccc32)c(OC)c1 | 6.26 µM |
| CCOc1ccc2c(c1)OC(c1ccc(OC)cc1)(C(F)(F)F)NC2=O (stereo not drawn) | 9.2 µM |
| Cc1ccc(Nc2nc(-c3c(C)nc4ncccn34)cs2)cc1 | 1 µM |
| COC(=O)[C@]12OC[C@]34C([C@@H](O)[C@@H]1O)[C@]1(C)CC(=O)C(O)=C(C)[C@@H]1C[C@H]3OC(=O)[C@H](O)[C@@H]24 (stereo partly drawn) | 0.548 µM |
| C=C(C)COc1ccc(-c2n[nH]c(C)c2-c2ccc(OC)c(OC)c2)c(O)c1 | 9.37 µM |
| COc1ccc(C)cc1NS(=O)(=O)c1ccc(-c2cnc(C3CC3)o2)cc1 | 0.84 µM |

| Structure (SMILES) | IC50 |
| --- | --- |
| COc1cc(NS(=O)(=O)c2ccc(C)cc2)c2ncccc2c1 | 1.65 µM |
| Cc1ccc2[nH]c(-c3cccc(F)c3)cc(=O)c2c1 | > 80 µM (inactive) |
| CCN1C=CC(=C2C(=O)c3ccccc3C2=O)C=C1 | 0.92 µM |
| COC(=O)c1ccccc1NC1=C/C(=N\S(=O)(=O)c2cccs2)c2ccccc2C1=O | 1.04 µM |
| COc1ccc(OC)c(-c2nnc3n2N=C(c2ccc(OC)c(OC4CCCC4)c2)CS3)c1 | 3.09 µM |
| COc1cc(NS(=O)(=O)c2ccc(OC)c(C)c2C)c(OC)cc1Cl | 5.28 µM |
| CCOCCCNC(=O)c1cc2c(=O)n3cccc(C)c3nc2n1C | > 80 µM (inactive) |
| Cn1nc(-c2ccccn2)nc2c(=O)n(C)c(=O)nc1-2 | 5.68 µM |
| COc1cccc(/C=N/Nc2ccc(C(=O)O)cc2)c1O | 0.41 µM |
| COc1ccc(CS(=O)/C(Cl)=C(/Cl)C(=O)Nc2ccc(OC)nc2)cc1 (stereo not drawn) | 4.31 µM |
| O=[N+]([O-])c1ccc(Sc2ccc(Cl)c(Cl)c2)nc1 | 64 µM (inactive) |
| Cc1cccc(NS(=O)(=O)c2ccc(-c3cnc(C4CC4)o3)cc2)c1C | 1.7 µM |
| CCOCCCNC(=O)c1ccc2c(c1)N=C(CC)c1cc(Br)ccc1S2 | 1.46 µM |
| COc1cc(C2c3cc4c(cc3C(OC3OC5COC(c6cccs6)OC5C(O)C3O)C3COC(=O)C23)OCO4)cc(OC)c1O (stereo not drawn) | > 80 µM (inactive) |
| CCOc1ccc(N/C(N)=N/c2nc(CSc3nnc(C)s3)cc(=O)[nH]2)cc1 | 29.9 µM (inactive) |
| CCOc1ccccc1C(=O)Nc1ccc2nc(N3CCN(c4ncccn4)CC3)cc(C)c2c1 | 15.2 µM |
| CCn1ncc(C2=NOC(C(=O)NCc3ccc(Cl)cc3)C2)c1C (stereo not drawn) | 26 µM (inactive) |
| COc1ccc(CCN2C(=O)C3C4C=CC(C3C2=O)C2C(=O)N(CCc3ccc(OC)c(OC)c3)C(=O)C42)cc1OC (stereo not drawn) | 5.01 µM |
| Cc1cc(C)cc(NS(=O)(=O)c2ccc(-c3cnc(C4CC4)o3)cc2)c1 | 1.8 µM |
| Cc1cc(C(C)(C)C)cc(C)c1C[n+]1ccc2ccccc2c1 | 4.34 µM |
| COc1ccc(OC)c(Nc2cc(-c3ccccc3)nc(N)n2)c1 | 3.41 µM |
| COc1ccc(Cl)cc1NC(=O)CN(C)CC(=O)Nc1ccccc1N1CCOCC1 | 12 µM |
| COc1ccc(C[C@H](N)C(=O)N[C@H]2[C@@H](O)[C@H](n3cnc4c(N(C)C)ncnc43)O[C@@H]2CO)cc1 | 2.64 µM |

| Structure (SMILES) | IC50 |
| --- | --- |
| O[C@@H]1[C@@H](O)C=C2CCN3Cc4cc5c(cc4[C@H]1C23)OCO5 (stereo partly drawn) | 1.97 µM |
| COc1cccc(C2CC(=O)Nc3cc4c(cc32)CCC4)c1 (stereo not drawn) | 10.7 µM |
| COc1ccc(NC(=O)/C(Cl)=C(/Cl)S(=O)Cc2ccccc2Cl)cn1 (stereo not drawn) | 3.95 µM |
| CC(=O)Nc1ccc(S(=O)(=O)N2c3ccc(F)cc3CCC2C)cc1 (stereo not drawn) | 14.6 µM |
| NC(=O)CC(NC(=O)c1ccc(Br)cc1)c1ccc(N2CCCCCC2)c([N+](=O)[O-])c1 (stereo not drawn) | 29.3 µM (inactive) |
| CC(=O)NC(c1ccc(C(C)C)cc1)c1ccc2cccnc2c1O (stereo not drawn) | 40.7 µM (inactive) |
| O=C(NCCc1ccccc1)c1ccc2c(c1)OCCO2 | 1.3 µM |
| COC(=O)c1nn(-c2ccc3c(c2)CCN3C(C)=O)cc1O | 3.87 µM |
| O=C(Nc1ccc(Cl)c(S(=O)(=O)N2CCOCC2)c1)c1ccc(OCC2CCCO2)cc1 (stereo not drawn) | 3.14 µM |
| COc1ccc(Nc2nc(-c3sc(C)nc3C)cs2)cc1 | 6.91 µM |
| C=C1C(=O)O[C@H]2C[C@@H](C)[C@@H]3C=CC(=O)[C@@]3(C)C[C@H]12 | 5.84 µM |
| COc1cc(CC(=O)OCC(=O)c2ccc3c(c2)OCCO3)cc(OC)c1OC | 0.67 µM |
| CCCCCC(=O)N[C@@H](c1ccccc1)[C@@H](O)C(=O)O[C@H]1C[C@@]2(O)[C@@H](OC(=O)c3ccccc3)C3[C@](C)(C(=O)[C@H](OC(C)=O)C(=C1C)C2(C)C)[C@@H](O)C[C@H]1OC[C@@]31OC(C)=O (stereo partly drawn) | > 80 µM (inactive) |
| O=C(N/N=C/c1c(O)ccc2ccccc12)c1ccc(Br)o1 | 0.55 µM |
| Cc1cc(NC(=O)CSc2nc3ccccc3c(=O)n2C2CCCC2)no1 | 19.1 µM |
| CCN(CC)c1ccc(-c2nn3c(-c4n[nH]c5c4CCC5)nnc3s2)cc1 | 2.16 µM |
| CCn1c(C)cc(C(=O)CN2C(=O)c3ccccc3S2(=O)=O)c1C | 5.36 µM |
| Cc1cnc(NC(=O)c2ccc3c(c2)OCCO3)s1 | 3.78 µM |
| CCOCCOC(=O)c1[nH]c2c(c1C)C(=O)CC(c1cccs1)C2 (stereo not drawn) | 4.6 µM |
| COc1ccc(-[n+]2c(-c3ccccc3)cc(-c3ccc(C)cc3)cc2-c2ccccc2)cc1 | 3.61 µM |
| Cc1ccc(COC(=O)c2cc([N+](=O)[O-])ccc2N2CCOCC2)cc1 | 3.3 µM |
| COc1cc(C2C(C#N)=C(N)Oc3cc(N(C)C)ccc32)cc2c1OCO2 (stereo not drawn) | 3.56 µM |
